Test results: patent US10821115B2, “Compounds that inhibit Mcl-1 protein” (priority 2017, dated 2020)
Read-outs that look alike come from different tables or passages of the source.

Test system: human multiple myeloma cell line, OPM-2
Assay: Cell viability assay (OPM-2 10 FBS), CellTiter-Glo
Type: cell-based
Summary of the method: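 OPM-2 cells at 3000 cells/well in RPMI 1640 with 10% FBS were exposed to serially diluted compounds for 16 h at 37 °C, 5% CO2.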

[1] = read-out: OPM-2 10% FBS IC50 IP, OPM-2 cells, 10% FBS, 16 h incubation
[2] = Homo sapiens, OPM-2, 16 h, read-out: OPM-2 10% FBS IC50 IP, OPM-2 cells, 10% FBS, 16 h incubation
[3] = Homo sapiens, OPM-2, 16 h, read-out: OPM-2 10% FBS IC50 IP, OPM-2 cells, 10% FBS, 16 h, CellTiter-Glo

SMILES | IC50 [1] | IC50 [2] | other results
CCO[C@]1(CN2CCN(C(C)C)[C@H](C)C2)/C=C/C[C@H](C)[C@@H](CCOC)S(=O)(=O)NC(=O)c2ccc3c(c2)N(C[C@@H]2CC[C@H]21)C[C@@]1(CCCc2cc(Cl)ccc21)CO3 [Example 17, (1S,3′R,6′R,7′R,8′E,11′S,12′R)-6-chloro-7′-ethoxy-12′-(2-methoxyethyl)-11′-methyl-7′-(((3R)-3-methyl-4-(1-methylethyl)-1-piperazinyl)methyl)-3,4-dihydro-2H,15′H-spiro[naphthalene-1,22′-[20]oxa[13]thia[1,14]diazatetracyclo[14.7.2.0-3,6˜.0˜19,24˜]pentacosa[8,16,18,24]tetraen]-15′-one 13′,13′-dioxide] | 34 nM |  | 
CO[C@@]1(CN2CCC(N3CCOCC3)CC2)/C=C/C[C@H](C)[C@@H](C)S(=O)(=O)NC(=O)c2ccc3c(c2)N(C[C@@H]2CC[C@H]21)C[C@@]1(CCCc2cc(Cl)ccc21)CO3 [Example 263, (1S,3′R,6′R,7′S,8′E,11′S,12′R)-6-chloro-7′-methoxy-11′,12′-dimethyl-7′-((4-(4-morpholinyl)-1-piperidinyl)methyl)-3,4-dihydro-2H,15′H-spiro[naphthalene-1,22′-[20]oxa[13]thia[1,14]diazaetracyclo [14.7.2.0~3,6~.0~19,24~]pentacosa[8,16,18,24]tetraen]-15′-one 13′,13′-dioxide] |  | 124 nM | 
COCC[C@@H]1[C@@H](C)C/C=C/[C@@](CN2CCN(C(C)C)[C@H](C)C2)(OC)[C@@H]2CC[C@H]2CN2C[C@@]3(CCCc4cc(Cl)ccc43)COc3ccc(cc32)C(=O)NS1(=O)=O [Example 12, (1S,3′R,6′R,7′R,8′E,11′S,12′R)-6-chloro-7′-methoxy-12′-(2-methoxyethyl)-11′-methyl-7′-(((3R)-3-methyl-4-(1-methylethyl)-1-piperazinyl)methyl)-3,4-dihydro-2H, 15′H-spiro[naphthalene-1,22′-[20]oxa[13]thia[1,14]diazatetracyclo[14.7.2.0-3,6˜.0˜19,24˜]pentacosa[8,16,18,24]tetraen]-15′-one 13′,13′-dioxide] |  | 22 nM | 
C[C@@H]1[C@@H](C)C/C=C/C(O)(CN2CCN3CCCC[C@@H]3C2)[C@@H]2CC[C@H]2CN2C[C@@]3(CCCc4cc(Cl)ccc43)COc3ccc(cc32)C(=O)NS1(=O)=O (single isomer, unassigned) [Example 243] | 106 nM |  | 
CO[C@@]1(CN2CCN3CCCC[C@H]3C2)/C=C/C[C@H](C)[C@@H](C)S(=O)(=O)NC(=O)c2ccc3c(c2)N(C[C@@H]2CC[C@H]21)C[C@@]1(CCCc2cc(Cl)ccc21)CO3 [Example 79, (1S,3′R,6′R,7′S,8′E,11′S,12′R)-6-chloro-7′-methoxy-11′,12′-dimethyl-7′-((9aS)-octahydro-2H-pyrido[1,2-a]pyrazin-2-ylmethyl)-3,4-dihydro-2H,15′H-spiro[naphthalene-1,22′-[20]oxa[13]thia[1,14]diazatetracyclo [14.7.2.0~3,6~.0~19,24~]pentacosa[8,16,18,24]tetraen]-15′-one 13′,13′-dioxide] |  | 245 nM | 
CO[C@@]1(C#CCCc2ccncn2)/C=C/C[C@H](C)[C@@H](C)S(=O)(=O)NC(=O)c2ccc3c(c2)N(C[C@@H]2CC[C@H]21)C[C@@]1(CCCc2cc(Cl)ccc21)CO3 [Example 100519, (1S,3′R,6′R,7′S,8′E,11′S,12′R)-6-chloro-7′-methoxy-11′,12′-dimethyl-7′-(4-(4-pyrimidinyl)-1-butyn-1-yl)-3,4-dihydro-2H,15′H-spiro[naphthalene-1,22′-[20]oxa[13]thia[1,14]diazatetracyclo [14.7.2.0~3,6~.0~19,24~]pentacosa[8,16,18,24]tetraen]-15′-one 13′,13′-dioxide] |  |  | IC50 (read-out: OPM-2 10% FBS IC50 IP, OPM-2 cells, 10% FBS, 16 h, CellTiter-Glo): 138 nM
CCO[C@]1(CN2CCN(C3COC3)CC2)/C=C/C[C@H](C)[C@@H](C)S(=O)(=O)NC(=O)c2ccc3c(c2)N(C[C@@H]2CC[C@H]21)C[C@@]1(CCCc2cc(Cl)ccc21)CO3 [Example 2, (1 S,3′R,6′R,7′R,8′E,11′S,12′R)-6-chloro-7′-ethoxy-11′,12′-dimethyl-7′-((4-(3-oxetanyl)-1-piperazinyl)methyl)-3,4-dihydro-2H, 15′H-spiro[naphthalene-1,22′-[20]oxa[13]thia[1,14]diazatetracyclo[14.7.2.0-3,6˜.0˜19,24˜]pentacosa[8,16,18,24]tetraen]-15′-one 13′,13′-dioxide] |  | 76 nM | 
CCO[C@@]1(CN2CCC(N(CCOC)CCOC)CC2)/C=C/C[C@H](C)[C@@H](C)S(=O)(=O)NC(=O)c2ccc3c(c2)N(C[C@@H]2CC[C@H]21)C[C@@]1(CCCc2cc(Cl)ccc21)CO3 [Example 312, (1S,3′R,6′R,7′S,8′E,11′S,12′R)-7′-((4-(bis(2-methoxyethyl)amino)-1-piperidinyl)methyl)-6-chloro-7′-ethoxy-11′,12′-dimethyl-3,4-dihydro-2H,15′H-spiro[naphthalene-1,22′-[20]oxa[13]thia[1,14]diazatetracyclo [14.7.2.0~3,6~.0~19,24~]pentacosa[8,16,18,24]tetraen]-15′-one 13′,13′-dioxide] |  | 408 nM | 
CO[C@]1(CN2CCN3CCS(=O)(=O)C[C@@H]3C2)/C=C/C[C@H](C)[C@@H](C)S(=O)(=O)NC(=O)c2ccc3c(c2)N(C[C@@H]2CC[C@H]21)C[C@@]1(CCCc2cc(Cl)ccc21)CO3 [Example 219] | 47 nM |  | 
COC(=O)[C@H](NC(=O)C[C@]1(OC)/C=C/C[C@H](C)[C@@H](C)S(=O)(=O)NC(=O)c2ccc3c(c2)N(C[C@@H]2CC[C@H]21)C[C@@]1(CCCc2cc(Cl)ccc21)CO3)C(C)=O [Example 100582] |  |  | IC50 [3]: 1120 nM
CO[C@]1(CN2CCN3CCCC[C@H]3C2)/C=C/C[C@H](C)[C@@H](C)S(=O)(=O)NC(=O)c2ccc3c(c2)N(C[C@@H]2CC[C@H]21)C[C@@]1(CCCc2cc(Cl)ccc21)CO3 [Example 78, (1S,3′R,6′R,7′R,8′E,11′S,12′R)-6-chloro-7′-methoxy-11′,12′-dimethyl-7′-((9aS)-octahydro-2H-pyrido[1,2-a]pyrazin-2-ylmethyl)-3,4-dihydro-2H,15′H-spiro[naphthalene-1,22′-[20]oxa[13]thia[1,14]diazateracyclo [14.7.2.0~3,6~.0~19,24~]pentacosa[8,16,18,24]tetraen]-15′-one 13′,13′-dioxide] |  | 175 nM | 
C[C@@H]1[C@@H](C)C/C=C/[C@](O)(CN2CCN3CCOC[C@@H]3C2)[C@@H]2CC[C@H]2CN2C[C@@]3(CCCc4cc(Cl)ccc43)COc3ccc(cc32)C(=O)NS1(=O)=O [Example 213, (1 S,3′R,6′R,7′R,8′E,11′S,12′R)-6-chloro-7′-((9aS)-hexahydropyrazino[2,1-c][1,4]oxazin-8(1H)-ylmethyl)-7′-hydroxy-11′,12′-dimethyl-3,4-dihydro-2H, 15′H-spiro[naphthalene-1,22′-[20]oxa[13]thia[1,14]diazatetracyclo[14.7.2.0-3,6˜.0˜19,24˜]pentacosa[8,16,18,24]tetraen]-15′-one 13′,13′-dioxide] | 400 nM |  | 
CO[C@@]1(C(=O)N(C)C)/C=C/C[C@H](C)[C@@H](C)S(=O)(=O)NC(=O)c2ccc3c(c2)N(C[C@@H]2CC[C@H]21)C[C@@]1(CCCc2cc(Cl)ccc21)CO3 [Example 176, (1S,3′R,6′R,7′S,8′E,11′S,12′R)-6-chloro-7′-methoxy-N,N, 11′,12′-tetramethyl-15′-oxo-3,4-dihydro-2H-spiro[naphthalene-1,22′-[20]oxa[13]thia[1,14]diazatetracyclo[14.7.2.0-3,6˜.0˜19,24˜]pentacosa[8,16,18,24]tetraene]-7′-carboxamide 13′,13′-dioxide] | 149 nM |  | 
C[C@@H]1[C@@H](C)CCC[C@@](O)(CN2CCN3CCOC[C@@H]3C2)[C@@H]2CC[C@H]2CN2C[C@@]3(CCCc4cc(Cl)ccc43)COc3ccc(cc32)C(=O)NS1(=O)=O [Example 7, (1S,3′R,6′R,7′S,11′S,12′R)-6-CHLORO-7′-((9AS)-HEXAHYDROPYRAZINO [2,1-C][1,4]OXAZIN-8(1H)-YLMETHYL)-7′-HYDROXY-11′,12′-DIMETHYL-3,4-DIHYDRO-2H, 15′H-SPIRO[NAPHTHALENE-1,22′-[20]OXA[13]THIA[1,14]DIAZATETRACYCLO[14.7.2.0-3,6˜.0˜19,24˜]PENT ACOSA[16,18,24]TRIEN]-15′-ONE 13′,13′-DIOXIDE] | 25 nM |  | 
CO[C@]1(CN2CCN3CCN(C(C)=O)C[C@@H]3C2)/C=C/C[C@H](C)[C@@H](C)S(=O)(=O)NC(=O)c2ccc3c(c2)N(C[C@@H]2CC[C@H]21)C[C@@]1(CCCc2cc(Cl)ccc21)CO3 [Example 218] | 92 nM |  | 
CO[C@@]1(CN2CCN3CCCC[C@@H]3C2)/C=C/C[C@H](C)[C@@H](C)S(=O)(=O)NC(=O)c2ccc3c(c2)N(C[C@@H]2CC[C@H]21)C[C@@]1(CCCc2cc(Cl)ccc21)CO3 [Example 197, (1S,3′R,6′R,7′S,8′E,11′S,12′R)-6-chloro-7′-methoxy-11′,12′-dimethyl-7′-((9aR)-octahydro-2H-pyrido[1,2-a]pyrazin-2-ylmethyl)-3,4-dihydro-2H,15′H-spiro[naphthalene-1,22′-[20]oxa[13]thia[1,14]diazatetracyclo [14.7.2.0~3,6~.0~19,24~]pentacosa[8,16,18,24]tetraen]-15′-one 13′,13′-dioxide] |  | 129 nM | 
COC(=O)[C@H](NC(=O)C[C@]1(OC)/C=C/C[C@H](C)[C@@H](C)S(=O)(=O)NC(=O)c2ccc3c(c2)N(C[C@@H]2CC[C@H]21)C[C@@]1(CCCc2cc(Cl)ccc21)CO3)[C@@H](C)O [Example 100581, methyl N-(((1S,3′R,6′R,7′S,8′E,11′S,12′R)-6-chloro-7′-methoxy-11′,12′-dimethyl-13′,13′-dioxido-15′-oxo-3,4-dihydro-2H-spiro[naphthalene-1,22′-[20]oxa[13]thia[1,14]diazatetracyclo [14.7.2.0~3,6~.0~19,24~]pentacosa[8,16,18,24]tetraen]-7′-yl)acetyl)-D-allothreoninate] |  |  | IC50 [3]: 1540 nM
